# Data reported in ChEMBL document CHEMBL5465560, “Selectivity Literature for EUbOPEN Chemogenomic Library” (2024).
# Experiments:
# [1] = target: Receptor-type tyrosine-protein kinase FLT3 (Homo sapiens) (UniProt P36888); test: Selectivity interaction (KinaseProfiler screening (Millipore)) EUB0000601a FLT3; settings: at 3 µM
# [2] = tested on: Epidermal growth factor receptor (Homo sapiens), P00533 [L861Q]; test: (§1) Selectivity interaction (Ambit KINOMEscan and KiNATiv profiling in Jurkat cells) EUB0000090b EGFR; assay type: cell-based; settings: at 1 µM
# [3] = tested on: Epidermal growth factor receptor (Homo sapiens), P00533 [T790M]; test: as §1; assay type: cell-based; settings: at 1 µM
# [4] = tested on: Epidermal growth factor receptor (Homo sapiens), P00533 [L858R,T790M]; test: as §1; assay type: cell-based; settings: at 1 µM
# [5] = tested on: Epidermal growth factor receptor (Homo sapiens), P00533 [UNDEFINED MUTATION]; test: as §1; assay type: cell-based; settings: at 1 µM
# Epidermal growth factor receptor (Homo sapiens), P00533 [UNDEFINED MUTATION], sequence (P00533 whole entry, looked up, stated change not applied): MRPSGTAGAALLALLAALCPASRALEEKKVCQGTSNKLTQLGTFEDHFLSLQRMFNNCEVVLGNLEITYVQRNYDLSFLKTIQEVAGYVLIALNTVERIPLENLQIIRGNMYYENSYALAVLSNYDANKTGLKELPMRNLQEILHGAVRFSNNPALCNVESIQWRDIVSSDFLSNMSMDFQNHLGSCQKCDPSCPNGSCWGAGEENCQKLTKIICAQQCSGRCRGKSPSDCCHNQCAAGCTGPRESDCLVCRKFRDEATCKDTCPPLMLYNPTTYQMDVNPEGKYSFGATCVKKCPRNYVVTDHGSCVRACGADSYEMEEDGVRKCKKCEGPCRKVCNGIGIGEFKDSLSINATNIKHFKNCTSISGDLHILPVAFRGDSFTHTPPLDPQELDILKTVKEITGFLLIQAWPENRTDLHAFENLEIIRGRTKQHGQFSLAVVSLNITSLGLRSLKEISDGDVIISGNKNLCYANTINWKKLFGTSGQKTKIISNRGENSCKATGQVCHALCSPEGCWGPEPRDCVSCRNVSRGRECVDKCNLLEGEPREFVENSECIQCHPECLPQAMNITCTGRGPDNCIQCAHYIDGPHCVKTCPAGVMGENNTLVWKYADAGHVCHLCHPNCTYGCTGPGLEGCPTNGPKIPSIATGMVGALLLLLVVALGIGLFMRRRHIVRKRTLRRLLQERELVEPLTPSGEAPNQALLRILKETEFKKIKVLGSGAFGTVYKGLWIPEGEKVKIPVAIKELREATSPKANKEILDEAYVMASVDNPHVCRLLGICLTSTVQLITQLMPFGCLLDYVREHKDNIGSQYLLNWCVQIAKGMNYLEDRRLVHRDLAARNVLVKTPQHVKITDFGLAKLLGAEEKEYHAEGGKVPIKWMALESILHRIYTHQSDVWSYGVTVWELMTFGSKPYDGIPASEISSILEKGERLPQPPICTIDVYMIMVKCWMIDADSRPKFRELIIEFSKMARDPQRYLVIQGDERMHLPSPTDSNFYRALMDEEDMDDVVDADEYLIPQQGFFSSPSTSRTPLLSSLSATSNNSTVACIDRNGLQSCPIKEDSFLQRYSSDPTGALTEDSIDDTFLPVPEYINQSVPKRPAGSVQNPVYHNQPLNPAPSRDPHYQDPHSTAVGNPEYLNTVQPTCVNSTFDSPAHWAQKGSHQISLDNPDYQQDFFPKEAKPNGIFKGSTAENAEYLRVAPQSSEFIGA
# [6] = tested on: Epidermal growth factor receptor (Homo sapiens), P00533 [G719C]; test: as §1; assay type: cell-based; settings: at 1 µM
# [7] = target: Epidermal growth factor receptor (Homo sapiens, UniProt P00533); test: as §1; assay type: cell-based; settings: at 1 µM
# Epidermal growth factor receptor, sequence (P00533 whole entry): as the sequence (P00533 whole entry, looked up, stated change not applied) above
# [8] = tested on: Epidermal growth factor receptor (Homo sapiens), P00533 [L858R]; test: as §1; assay type: cell-based; settings: at 1 µM
# [9] = tested on: Epidermal growth factor receptor (Homo sapiens), P00533 [G719S]; test: as §1; assay type: cell-based; settings: at 1 µM
# [10] = target: T1, Mitogen-activated protein kinase kinase kinase 7 (Homo sapiens) (UniProt O43318); test: Selectivity interaction (KinomeScan (DiscoverX)) EUB0000607a MAP3K7; settings: at 10 µM
# T1 sequence (whole entry): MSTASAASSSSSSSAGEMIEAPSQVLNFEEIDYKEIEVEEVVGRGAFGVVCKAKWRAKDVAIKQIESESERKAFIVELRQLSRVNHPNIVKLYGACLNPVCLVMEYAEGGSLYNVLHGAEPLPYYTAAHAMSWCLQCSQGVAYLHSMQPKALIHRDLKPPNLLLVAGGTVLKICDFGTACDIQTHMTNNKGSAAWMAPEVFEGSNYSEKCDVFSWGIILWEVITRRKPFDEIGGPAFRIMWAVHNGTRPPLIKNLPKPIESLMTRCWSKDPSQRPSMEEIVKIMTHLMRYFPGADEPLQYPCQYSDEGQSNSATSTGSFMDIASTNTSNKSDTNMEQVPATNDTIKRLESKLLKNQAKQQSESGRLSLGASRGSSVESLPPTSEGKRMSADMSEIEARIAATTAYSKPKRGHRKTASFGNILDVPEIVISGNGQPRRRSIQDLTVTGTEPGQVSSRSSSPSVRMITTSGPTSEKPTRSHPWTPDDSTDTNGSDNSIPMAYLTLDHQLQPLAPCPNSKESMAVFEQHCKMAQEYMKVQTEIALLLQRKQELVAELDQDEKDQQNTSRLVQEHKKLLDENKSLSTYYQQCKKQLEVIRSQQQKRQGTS
# [11] = target: Ribosomal protein S6 kinase beta-1 (Homo sapiens, UniProt P23443); test: Selectivity interaction (ActivX KiNativ screen (ex vivo kinase selectivity in human PBMCs)) EUB0001619a RPS6KB1; assay type: cell-based; settings: PBMC, at 1 µM
# Ribosomal protein S6 kinase beta-1, sequence (P23443 whole entry, looked up): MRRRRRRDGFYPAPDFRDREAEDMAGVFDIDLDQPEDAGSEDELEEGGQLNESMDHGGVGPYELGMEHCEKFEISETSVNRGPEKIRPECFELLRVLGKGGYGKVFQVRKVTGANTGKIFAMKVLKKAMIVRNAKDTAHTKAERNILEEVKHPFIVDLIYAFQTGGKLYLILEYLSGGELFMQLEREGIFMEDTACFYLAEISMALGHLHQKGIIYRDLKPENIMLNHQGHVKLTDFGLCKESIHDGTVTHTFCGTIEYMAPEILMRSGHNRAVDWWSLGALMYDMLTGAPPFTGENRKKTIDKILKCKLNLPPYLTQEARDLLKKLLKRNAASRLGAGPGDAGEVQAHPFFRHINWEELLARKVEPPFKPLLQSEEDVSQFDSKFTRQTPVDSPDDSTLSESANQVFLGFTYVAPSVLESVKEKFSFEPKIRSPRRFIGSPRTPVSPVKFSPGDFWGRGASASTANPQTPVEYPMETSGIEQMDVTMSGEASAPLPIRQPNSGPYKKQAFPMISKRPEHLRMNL
# [12] = target: RAC-gamma serine/threonine-protein kinase (Homo sapiens, UniProt Q9Y243); test: Selectivity interaction (Kinase panel (DSF assay)) EUB0001558a AKT3
# [13] = target: T2, Mitogen-activated protein kinase 15 (Homo sapiens) (UniProt Q8TD08); settings: at 10 µM
# T2 sequence (whole entry): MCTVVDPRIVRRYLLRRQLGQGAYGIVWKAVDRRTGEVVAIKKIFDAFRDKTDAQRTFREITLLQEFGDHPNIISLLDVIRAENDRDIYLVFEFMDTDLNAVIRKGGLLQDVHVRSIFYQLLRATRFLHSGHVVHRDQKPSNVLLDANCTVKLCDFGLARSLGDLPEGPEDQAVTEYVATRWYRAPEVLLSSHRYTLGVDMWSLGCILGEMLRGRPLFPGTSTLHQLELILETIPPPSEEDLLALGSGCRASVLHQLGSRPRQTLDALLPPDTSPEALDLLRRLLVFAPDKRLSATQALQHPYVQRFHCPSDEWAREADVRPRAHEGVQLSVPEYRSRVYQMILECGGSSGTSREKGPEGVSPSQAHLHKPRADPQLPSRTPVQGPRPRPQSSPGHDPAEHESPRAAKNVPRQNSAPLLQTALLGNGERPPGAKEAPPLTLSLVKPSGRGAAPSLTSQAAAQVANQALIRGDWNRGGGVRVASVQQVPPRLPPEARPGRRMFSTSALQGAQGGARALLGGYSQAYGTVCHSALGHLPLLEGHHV
# [14] = target: DNA-dependent protein kinase catalytic subunit (Homo sapiens) (UniProt P78527); test: Selectivity interaction (ActivX KiNativ screen (kinase selectivity in THP-1 cell lysates)) EUB0000639a PRKDC; assay type: subcellular; settings: lysate, at 1 µM
# [15] = target: Cyclin-dependent kinase 1/cyclin B (Homo sapiens, UniProt P06493); test: Selectivity interaction (Kinase panel (Enzyme activity assay)) EUB0000612a CDK1; assay type: protein-complex assay
# [16] = target: Potassium voltage-gated channel subfamily A member 5 (Homo sapiens) (UniProt P22460); test: Selectivity interaction (Panel of kinases, GPCRs, ion channels and transporters (enzymatic assay)) EUB0000266bCl KCNA5
# Potassium voltage-gated channel subfamily A member 5 (Homo sapiens), sequence (P22460 whole entry): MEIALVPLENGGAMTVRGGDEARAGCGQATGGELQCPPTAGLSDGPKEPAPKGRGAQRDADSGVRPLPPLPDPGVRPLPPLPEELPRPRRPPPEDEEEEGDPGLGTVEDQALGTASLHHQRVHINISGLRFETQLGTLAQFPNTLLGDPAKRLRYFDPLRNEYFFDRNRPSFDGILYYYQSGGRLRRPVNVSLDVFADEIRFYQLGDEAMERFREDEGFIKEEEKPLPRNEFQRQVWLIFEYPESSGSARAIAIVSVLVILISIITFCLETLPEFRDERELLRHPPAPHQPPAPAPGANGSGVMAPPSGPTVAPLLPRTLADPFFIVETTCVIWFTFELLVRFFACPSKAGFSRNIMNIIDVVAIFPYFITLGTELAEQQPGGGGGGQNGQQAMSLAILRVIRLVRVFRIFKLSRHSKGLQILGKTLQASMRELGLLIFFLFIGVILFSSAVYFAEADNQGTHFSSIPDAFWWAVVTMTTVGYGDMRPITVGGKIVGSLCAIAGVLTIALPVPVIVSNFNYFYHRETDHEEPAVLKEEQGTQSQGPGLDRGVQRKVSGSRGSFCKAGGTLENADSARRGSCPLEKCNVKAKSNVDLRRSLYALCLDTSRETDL
# [17] = Selectivity interaction (KinomeScan (DiscoverX)) EUB0000092b PKNB; settings: at 10 µM
# [18] = target: cAMP-dependent protein kinase catalytic subunit beta (Homo sapiens) (UniProt P22694); test: Selectivity interaction (LanthaScreen Eu Kinase Binding Assay) EUB0001632a PRKACB; settings: at 10 µM
# [19] = target: Tyrosine-protein kinase HCK (Homo sapiens) (UniProt P08631); test: Selectivity interaction (Kinase screening (Nanosyn)) EUB0000604a HCK
# Tyrosine-protein kinase HCK (Homo sapiens), sequence (P08631 2-526 limits assumed): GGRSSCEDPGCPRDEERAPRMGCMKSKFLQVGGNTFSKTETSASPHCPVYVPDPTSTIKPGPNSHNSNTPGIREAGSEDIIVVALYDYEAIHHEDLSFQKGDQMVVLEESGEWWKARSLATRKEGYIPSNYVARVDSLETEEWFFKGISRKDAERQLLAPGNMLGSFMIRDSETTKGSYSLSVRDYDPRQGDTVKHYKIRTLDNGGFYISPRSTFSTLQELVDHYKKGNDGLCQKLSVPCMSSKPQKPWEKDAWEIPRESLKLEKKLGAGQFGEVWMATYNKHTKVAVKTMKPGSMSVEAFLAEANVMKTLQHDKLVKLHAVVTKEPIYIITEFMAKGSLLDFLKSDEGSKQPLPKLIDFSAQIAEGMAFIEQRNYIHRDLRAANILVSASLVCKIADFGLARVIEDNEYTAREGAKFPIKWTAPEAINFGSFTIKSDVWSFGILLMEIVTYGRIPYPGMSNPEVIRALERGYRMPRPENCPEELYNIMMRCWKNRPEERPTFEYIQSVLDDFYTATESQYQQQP
# [20] = target: T3, Serine/threonine-protein kinase Nek11 (Homo sapiens) (UniProt Q8NG66); test: Selectivity interaction (KinomeScan (DiscoverX)) EUB0000695a NEK11; settings: at 100 nM
# T3 sequence (whole entry): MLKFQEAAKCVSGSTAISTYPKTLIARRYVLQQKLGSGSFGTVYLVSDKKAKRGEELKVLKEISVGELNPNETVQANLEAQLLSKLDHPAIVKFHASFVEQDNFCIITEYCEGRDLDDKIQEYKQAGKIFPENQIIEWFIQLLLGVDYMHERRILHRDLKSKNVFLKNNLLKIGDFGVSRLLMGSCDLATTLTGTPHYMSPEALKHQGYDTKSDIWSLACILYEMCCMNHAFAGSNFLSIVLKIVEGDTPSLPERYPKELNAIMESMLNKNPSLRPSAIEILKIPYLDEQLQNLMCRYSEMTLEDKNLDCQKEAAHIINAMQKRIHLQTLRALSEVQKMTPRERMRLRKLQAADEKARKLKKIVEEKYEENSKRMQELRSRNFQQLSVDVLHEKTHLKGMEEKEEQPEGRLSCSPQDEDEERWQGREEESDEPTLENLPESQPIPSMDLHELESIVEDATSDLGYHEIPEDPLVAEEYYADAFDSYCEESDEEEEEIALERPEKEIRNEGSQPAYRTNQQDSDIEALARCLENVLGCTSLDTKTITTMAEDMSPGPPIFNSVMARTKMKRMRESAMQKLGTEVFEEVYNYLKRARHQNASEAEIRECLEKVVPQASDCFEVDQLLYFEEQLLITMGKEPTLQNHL
# Receptor-type tyrosine-protein kinase FLT3 (Homo sapiens), sequence (P36888 whole entry): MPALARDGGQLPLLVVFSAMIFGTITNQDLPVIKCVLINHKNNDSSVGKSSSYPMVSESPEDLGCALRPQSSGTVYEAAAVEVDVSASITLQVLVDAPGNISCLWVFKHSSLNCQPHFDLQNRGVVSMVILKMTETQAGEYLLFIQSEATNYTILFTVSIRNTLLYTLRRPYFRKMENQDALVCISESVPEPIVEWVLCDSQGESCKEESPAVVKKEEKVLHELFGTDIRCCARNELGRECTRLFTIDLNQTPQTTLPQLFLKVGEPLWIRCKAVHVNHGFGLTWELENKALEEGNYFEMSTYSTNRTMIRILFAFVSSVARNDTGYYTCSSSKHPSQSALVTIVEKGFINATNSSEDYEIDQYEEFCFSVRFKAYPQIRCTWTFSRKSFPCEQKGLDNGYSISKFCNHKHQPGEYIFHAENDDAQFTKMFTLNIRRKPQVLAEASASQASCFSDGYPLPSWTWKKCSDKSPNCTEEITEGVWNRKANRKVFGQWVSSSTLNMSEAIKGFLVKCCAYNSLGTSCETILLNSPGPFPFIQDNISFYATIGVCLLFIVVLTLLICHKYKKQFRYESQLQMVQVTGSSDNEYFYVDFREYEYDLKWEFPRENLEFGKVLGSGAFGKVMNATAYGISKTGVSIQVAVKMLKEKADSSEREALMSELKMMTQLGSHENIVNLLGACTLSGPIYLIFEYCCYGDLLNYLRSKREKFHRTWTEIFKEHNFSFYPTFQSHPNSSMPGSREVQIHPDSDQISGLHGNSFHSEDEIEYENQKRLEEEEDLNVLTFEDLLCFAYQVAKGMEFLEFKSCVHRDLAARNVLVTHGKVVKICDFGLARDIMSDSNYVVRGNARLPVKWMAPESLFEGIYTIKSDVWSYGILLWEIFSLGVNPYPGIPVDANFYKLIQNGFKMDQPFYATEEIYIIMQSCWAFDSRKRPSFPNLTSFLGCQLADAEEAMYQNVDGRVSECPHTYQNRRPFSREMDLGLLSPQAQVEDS
smiles,measurement,setting,value
CCc1cc(Nc2nccc(-c3c(-c4ccc(OC)c(C(=O)Nc5c(F)cccc5F)c4)nc4ccccn34)n2)c(OC)cc1N1CCC(N2CCN(S(C)(=O)=O)CC2)CC1,% of inhibition,[1],57%
CN(C)C/C=C/C(=O)Nc1ccc(C(=O)N2CCCC(Nc3ncc(Cl)c(-c4c[nH]c5ccccc45)n3)C2)cc1 (stereo not given),% of control,[2],71%
same,% of control,[3],99%
same,% of control,[4],90%
same,% of control,[5],70%
same,% of control,[6],88%
same,% of control,[7],99%
same,% of control,[8],100%
same,% of control,[9],91%
CNC(=O)Nc1ccc(-c2nc(N3CC4CCC(C3)O4)c3cnn(C4CCC5(CC4)OCCO5)c3n2)cc1,% of control,[10],98%
N#Cc1cccc(-c2c[nH]c3ncnc(N4CCOCC4)c23)c1,% of inhibition,[11],-10%
CC(C)(O)[C@H](F)CN1Cc2cc(NC(=O)c3cnn4cccnc34)c(N3CCOCC3)cc2C1=O,dTM,[12],0.1 K
Cc1cc([C@@H](C)Nc2ccccc2C(=O)O)c2nc(N3CCOCC3)cc(=O)n2c1 [AZD-6482],% of control,[13],100%
CC[C@@H]1[C@H](F)C(=O)N[C@@H]1COc1nccc2cc(C(N)=O)c(OC)cc12 [ZIMLOVISERTIB],% of inhibition,[14],7.2%
CCc1cccc(CC)c1NC(=O)c1nn(C)c2c1CCc1cnc(Nc3ccc(C(=O)NC4CCN(C)CC4)cc3OC(F)(F)F)nc1-2,IC50,[15],> 10 µM
CCn1c(-c2nc3cc(C(=O)N4CCCC(N)C4)ccc3n2C)cc2ccccc21 (stereo not given),pXC50,[16],< 4.3 M
CCC(=O)N1CCN(c2ccc(-n3c(=O)ccc4cnc5ccc(-c6cnc7ccccc7c6)cc5c43)cc2C(F)(F)F)CC1,% of control,[17],64%
Cn1cc(-n2cnc3c(NCc4nc5cc(Cl)c(Cl)cc5[nH]4)nc(N4CCOCC4)nc32)cn1,% of inhibition,[18],4.17%
Cc1cnc(Nc2ccc(F)cc2Cl)nc1-c1c[nH]c(C(=O)N[C@H](CO)c2cccc(Cl)c2)c1,% of inhibition,[19],3%
Cc1cc(F)c(C(=O)Nc2cccc(-c3nncn3C(C)C)n2)cc1-n1cnc(C2CC2)c1,% of control,[20],78%
